Results: patent US9650325B2, “Compound, preparing method thereof, and use thereof as inhibitors of histone demethylase” (SNU R&DB FOUNDATION, priority 2013, dated 2017)

Legend:
[1] = test system: KDM4; assay: Immunoblotting of histone from tripartin-treated HeLa cell line: KDM4 inhibitory activity (H3K9me3); type: cell-based, human; details: 10 μM, 24 hours
Procedure: (§1) HeLa cell line, which is a uterine cervical cancer cell line, was treated with tripartin and then histone was extracted from the tripartin-treated HeLa cell. A histone methylation antibody which may verify activity of the KDM was analyzed by immunoblotting to measure the KDM inhibiting effect.
(§2) 0.1% (w/v) DMSO (control group), or 0.1% (w/v) DMSO and 10 μM tripartin (experimental group) was added to the HeLa cell line, which was then incubated at 37° C. for 24 hours. Subsequently, proteins were extracted from the HeLa cell line, and the extracted proteins underwent electrophoresis with 15% SDS-polyacrylamide. Anti-histone H3 antibody (MILLIPORE), anti-H3K9me3 antibody (MILLIPORE), anti-H3K9me2 antibody (MILLIPORE), anti-H3K3me1 antibody (MILLIPORE), anti-H3K27me3 antibody (MILLIPORE), anti-H3K4me3 antibody (MILLIPORE), anti-H3K36me3 antibody (MILLIPORE), anti-H3K79me2 antibody (MILLIPORE), and anti-H3ace antibody (MILLIPORE) were used to perform immunoblotting. […] Herein, H”, “K”, “me”, and “ace” refer to histone, lysine (K), methylation, and acetylation, respectively. The number next to “H” refers to a histone number, the number next to “K” refers to the histone amino acid number, and the number next to “me” refers to the number of methylation. For example, “H3K9me3” refers to histone H3 with a tri-methylated lysine in the ninth position. […]

[2] = test system: KDM3; assay: Immunoblotting of histone from tripartin-treated HeLa cell line: KDM3 inhibitory activity (H3K9me2/1); type: cell-based, human; details: 10 μM, 24 hours, vs DMSO control
Procedure: as §1
(§3) 0.1% (w/v) DMSO (control group), or 0.1% (w/v) DMSO and 10 μM tripartin (experimental group) was added to the HeLa cell line, which was then incubated at 37° C. for 24 hours. Subsequently, proteins were extracted from the HeLa cell line, and the extracted proteins underwent electrophoresis with 15% SDS-polyacrylamide. Anti-histone H3 antibody (MILLIPORE), anti-H3K9me3 antibody (MILLIPORE), anti-H3K9me2 antibody (MILLIPORE), anti-H3K3me1 antibody (MILLIPORE), anti-H3K27me3 antibody (MILLIPORE), anti-H3K4me3 antibody (MILLIPORE), anti-H3K36me3 antibody (MILLIPORE), anti-H3K79me2 antibody (MILLIPORE), and anti-H3ace antibody (MILLIPORE) were used to perform immunoblotting. […] Herein, H”, “K”, “me”, and “ace” refer to histone, lysine (K), methylation, and acetylation, respectively. The number next to “H” refers to a histone number, the number next to “K” refers to the histone amino acid number, and the number next to “me” refers to the number of methylation. For example, “H3K9me3” refers to histone H3 with a tri-methylated lysine in the ninth position.
(§4) KDM3, KDM4, KDM6, KDM5, and KDM2/7 demethylate H3K9me2/1, H3K9me3, H3K27, H3K4, and H3K36, respectively.

[3] = test system: KDM6; assay: Immunoblotting of histone from tripartin-treated HeLa cell line: KDM6 inhibitory activity (H3K27me3); type: cell-based, human; details: 10 μM, 24 hours, vs DMSO control
Procedure: as §1, §2

[4] = test system: KDM5; assay: Immunoblotting of histone from tripartin-treated HeLa cell line: KDM5 inhibitory activity (H3K4me3); type: cell-based, human; details: 10 μM, 24 hours, vs DMSO control
Procedure: as §1, §2

[5] = test system: KDM2/7; assay: Immunoblotting of histone from tripartin-treated HeLa cell line: KDM2/7 inhibitory activity (H3K36me3); type: cell-based, human; details: 10 μM, 24 hours, vs DMSO control
Procedure: as §1, §2

[6] = test system: HeLa cell line; assay: Immunoblotting of histone from tripartin-treated HeLa cell line: other histone marks (H3, H3K79me2, H3ace); type: cell-based, human; details: 10 μM, 37° C., 24 hours, vs DMSO control
Procedure: as §1, §3, §4

[7] = Analysis of physicochemical properties of tripartin

O=C1C[C@@](O)(C(Cl)Cl)c2c(O)cc(O)cc21 [tripartin]
H3K9me3 level (immunoblotting) ([1]; 37° C., vs DMSO control): increased significantly | KDM4 inhibitory effect ([1]; in comparison to the DMSO control group): inhibitory effect | H3K9me1 level (immunoblotting) ([2]; 37° C.): not increased | H3K9me2 level (immunoblotting) ([2]; 37° C.): not increased | KDM3 inhibitory effect [2]: No inhibitory effect | H3K27me3 level (immunoblotting) ([3]; 37° C.): not increased | KDM6 inhibitory effect [3]: No inhibitory effect | H3K4me3 level (immunoblotting) ([4]; 37° C.): not increased | KDM5 inhibitory effect [4]: No inhibitory effect | H3K36me3 level (immunoblotting) ([5]; 37° C.): not increased | KDM2/7 inhibitory effect [5]: No inhibitory effect | H3K79me2 level (immunoblotting) [6]: not increased | H3ace level (immunoblotting) [6]: not increased | H3 level (immunoblotting) [6]: not increased | Solubility ([7]; intermediate organic solvent such as methanol and acetone): well dissolved | Stability of the solid ([7]; room temperature): stable at room temperature
